Key:
AsPC-1 cells = target: T1, AsPC-1 cells (Homo sapiens, UniProt P01116, G12D); assay: Cellular phospho-ERK assay, AsPC-1 cells (KRAS G12D); format: cell-based; details: 2 hours, read-out: AsPC1 pERK IC50
T1 construct: p-ERK/total ERK AlphaSureFire read-out
Experimental: Procedure for Cellular Phospho-ERK Assay in KRAS Wild Type and Mutant (G12D, G12V) Cell Lines
PANC08.13 cells (ATCC® CRL-2551™), containing homozygous KRAS-G12D activating mutation, were cultured in growth medium made of RPMI1640-GlutaMAX™-I (ThermoFisher Scientific 61870) containing 15% heat inactivated fetal bovine serum (ThermoFisher Scientific 10091148)). AsPC-1 cells (ATCC® CRL-1682™), containing homozygous KRAS-G12D activating mutation, were cultured in T150 flask in growth medium (RPMI medium 1640-GlutaMAX™-I (ThermoFisher Scientific 61870) containing 10% fetal bovine serum (ThermoFisher Scientific 10091148)).
Cells for the assay were harvested in growth medium after TrypLE (ThermoFisher scientific 12604021) digestion and were seeded in a 384-well collagen coated cell culture plate (Corning 356702) at a density of 10,000-15,000 cells/20 μL/well, and incubated at 37° C., 5% CO2 overnight. The compound (with 10 mM stock concentration) dose-response titrations were prepared [30 μM final ERK detection assay concentration and 1:3 dilutions, 10-point dose response] and appropriate amounts (270 nL) of test compounds were dispensed in a 384-well intermediate plate using an Echo 550 liquid handler. 30 μL/well of RPMI medium 1640-GlutaMAX™-I was added to the intermediate plate and the contents of the intermediate plate (10 μL/well) were then transferred to the 384-well collagen coated cell culture plate, which was incubated at 37° C., 5% CO2 for 2 hours. After removal of medium from the collagen coated cell culture plate, cells were lysed in lysis buffer from Alpha SureFire® Ultra™ Multiplex p-ERK and total ERK assay kit (PerkinElmer MPSU-PTERK) containing Halt™ Protease and Phosphatase inhibitor cocktail (ThermoFisher Scientific 78446) at room temperature with constant shaking at 300 rpm for 30 minutes. The cell lysates were then transferred to an OptiPlate-384 plate (PerkinElmer 6005620), and the phosphorylation of ERK (p-ERK) and total ERK levels were detected by Alpha SureFire® Ultra™ Multiplex p-EEK kit and total ERK assay kit (PerkinElmer MPSU-PTERK) following the manufacturer's protocol. Assay plates were read on a EnVision Multimode Plate Reader (PerkinElmer), and the ratio of p-ERK vs. total ERK in each well was used as the final readout. Dose response curves were analyzed using a 4-parameter logistic model to calculate IC50 values using Spotfire software.

KRAS WT = KRAS WT (Homo sapiens, UniProt P01116); assay: SOS-catalyzed nucleotide exchange assay, KRAS WT (Procedure A); format: biochemical; details: GNE
KRAS WT, sequence (P01116 with tags, fused parts or gaps isoform P01116-2): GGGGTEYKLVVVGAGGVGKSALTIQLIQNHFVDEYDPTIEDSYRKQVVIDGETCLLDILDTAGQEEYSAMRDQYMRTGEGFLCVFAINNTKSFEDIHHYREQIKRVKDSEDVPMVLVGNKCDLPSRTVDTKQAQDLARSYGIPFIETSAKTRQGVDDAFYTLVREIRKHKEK
Description: (§1) Procedure for SOS-Catalyzed Nucleotide Exchange Assay for KRAS-WT, G12C/D/V, G13D, HRAS, and NRAS (Procedure A)
(§2) Recombinant KRAS-G12C protein used in this assay has an additional triple mutation (C51S/C80L/C118S). Whereas KRAS-WT, G12D/V, G13D, HRAS and NRAS are in context of their WT protein sequence background. Specifically, the SOS-catalyzed nucleotide exchange assay utilizes a preformed TR-FRET complex containing a specific biotinylated RAS protein (KRAS-WT, G12C/V/D, G13D, HRAS, NRAS; described above) with Bodipy-GDP, and Terbium-streptavidin. Compounds are preincubated with this complex for 60 minutes. Subsequently, recombinant human SOS protein and unlabeled GTP are added to initiate the exchange reaction. Small molecule inhibitors stabilize the Bodipy-GDP complex whereas the untreated protein rapidly exchanges Bodipy-GDP for unlabeled GTP resulting in reduced TR-FRET signal.
(§3) To assemble the preformed TR-FRET complexes, each biotinylated RAS protein is diluted to 2 μM in an EDTA Buffer (20 mM HEPES pH 7.5, 50 mM sodium chloride, 10 mM EDTA, and 0.01% Tween) and incubated at room temperature for one hour. This mixture is then further diluted to 90 nM in an Assay Buffer (20 mM HEPES pH 7.5, 150 mM sodium chloride, 10 mM magnesium chloride, and 0.005% Tween) containing 15 nM of Terbium-Streptavidin (Invitrogen, catalog #PV3577) and 900 nM of Bodipy-GDP (Invitrogen, catalog #G22360) and incubated at room temperature for six hours. It should be noted that this preformed TR-FRET complex for each of the RAS protein were made ahead of time, aliquoted and stored at −80° C. until the day of the experiment.
(§4) Each test compound (10 mM stock in DMSO) is diluted in DMSO to make a final-10-point, 3-fold dilution and is acoustically dispensed into a 384-well assay plate (Corning, catalog #3820) using an Echo 550 (Labcyte). Each well of the assay plate receives 3 μL of a specific 3×RAS preformed TR-FRET complex and 3 μL of Assay Buffer and is incubated at room temperature for 60 minutes (preincubation time). Each well then receives 3 μL of 3× recombinant human SOS protein and GTP (Sigma, G8877) in Assay Buffer and is incubated at room temperature for 30 minutes (G13D), 60 minutes (KRAS WT/G12C/D, H/NRAS) or 90 minutes for G12V. The final reaction in each well of 9 μL consists of 3 mM GTP, specific Ras and SOS proteins in the following concentrations: KRAS-G12C/SOS=3 nM/40 nM, KRAS-WT and G12D/SOS=1 nM/40 nM, KRAS-G12V/SOS=1.25 nM/160 nM, KRAS-G13D/SOS=1.25 nM/0 nM, HRAS and NRAS=1.25 nM/40 nM.
(§5) The time-resolved fluorescence resonance energy transfer (TR-FRET) signal is measured on an Envision (PerkinElmer) plate reader: Excitation filter=340 nm; emission1=495 nm; emission2=520 nm; dichroic mirror=D400/D505; delay time=[…]. The signal of each well is determined as the ratio of the emission at 520 nm to that at 495 nm. Percent effect of each well is determined after normalization to control wells containing DMSO (no effect) or a saturating concentration of inhibitor (max effect). The apparent effect as a function of compound concentration is fit to a four-parameter logistic equation.
(§6) For Example No. 14, nucleotide exchange assays for KRAS G12D, WT, G12C, and G12V were performed according to Procedure B. All the other compounds were tested according to Procedure A.

KRAS G12D = KRAS G12D (Homo sapiens, UniProt P01116, G12D); assay: SOS-catalyzed nucleotide exchange assay, KRAS G12D (Procedure A); format: biochemical; details: guanine nucleotide exchange (GNE)
KRAS G12D, sequence (P01116 with tags, fused parts or gaps isoform P01116-2 G12D): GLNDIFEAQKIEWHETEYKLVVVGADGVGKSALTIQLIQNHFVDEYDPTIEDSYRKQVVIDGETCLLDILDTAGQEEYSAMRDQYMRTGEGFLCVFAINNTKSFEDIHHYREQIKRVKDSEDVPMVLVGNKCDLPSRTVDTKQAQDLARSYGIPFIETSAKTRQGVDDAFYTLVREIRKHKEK
Description: as §1, §2, §3, §4, §5, §6

KRAS G12V = KRAS G12V (Homo sapiens, UniProt P01116, G12V); assay: SOS-catalyzed nucleotide exchange assay, KRAS G12V (Procedure A); format: biochemical; details: GNE
KRAS G12V, sequence (P01116 with tags, fused parts or gaps isoform P01116-2 G12V): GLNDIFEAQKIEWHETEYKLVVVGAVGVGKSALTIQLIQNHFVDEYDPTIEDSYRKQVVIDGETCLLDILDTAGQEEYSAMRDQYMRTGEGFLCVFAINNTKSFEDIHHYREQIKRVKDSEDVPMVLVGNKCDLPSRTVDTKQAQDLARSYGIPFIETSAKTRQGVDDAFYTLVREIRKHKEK
Description: as §1, §2, §3, §4, §5, §6

T1 sequence (P01116 1-188 isoform P01116-2 G12D): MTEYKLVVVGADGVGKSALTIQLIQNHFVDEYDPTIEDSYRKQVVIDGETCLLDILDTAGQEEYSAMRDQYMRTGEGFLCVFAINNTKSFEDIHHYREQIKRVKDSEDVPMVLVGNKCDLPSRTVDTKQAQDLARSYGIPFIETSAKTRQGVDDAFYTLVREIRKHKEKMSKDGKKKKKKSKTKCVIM

IC50 (AsPC-1 cells) | IC50 (KRAS WT) | IC50 (KRAS G12D) | IC50 (KRAS G12V) | SMILES
> 30000 nM | > 11100 nM | 7790 nM | > 11.1 µM | Cc1cc2[nH]ncc2c(-c2nccc3c2sc2nc(OCC4CCS4(=O)=O)nc(N4C[C@H]5CC[C@@H](C4)N5)c23)c1C(F)(F)F (stereo partly drawn) [Ex-31, 2-(((4-((1R,5S)-3,8-diazabicyclo[3.2.1]octan-3-yl)-8-(6-methyl-5-(trifluoromethyl)-1H-indazol-4-yl)pyrido[4′,3′:4,5]thieno[2,3-d]pyrimidin-2-yl)oxy)methyl)thietane 1,1-dioxide]
85.9 nM | 847 nM | 2.99 nM | 1.95 µM | C#Cc1c(F)ccc2cc3[nH]ncc3c(-c3nccc4c3sc3nc(OCC5(CN6CC[C@@H](F)C6)CC5)nc(N5C[C@H]6CC[C@@H](C5)N6)c34)c12 [Ex-94, 4-((1R,5S)-3,8-diazabicyclo[3.2.1]octan-3-yl)-8-(5-ethynyl-6-fluoro-1H-benzo[f]indazol-4-yl)-2-((1-(((R)-3-fluoropyrrolidin-1-yl)methyl)cyclopropyl)methoxy)pyrido[4′,3′: 4,5]thieno[2,3-d]pyrimidine]
18.1 nM | 57.4 nM | 1.99 nM | 0.0882 µM | C#Cc1c(F)ccc2cc3[nH]ncc3c(-c3nccc4c3sc3nc(OCC56CCCC5N(C)CCC6)nc(N5C[C@H]6CC[C@@H](C5)N6)c34)c12 (stereo partly drawn) [Ex-92, 4-((1R,5S)-3,8-diazabicyclo[3.2.1]octan-3-yl)-8-(5-ethynyl-6-fluoro-1H-benzo[f]indazol-4-yl)-2-((1-methyloctahydro-4aH-cyclopenta[b]pyridin-4a-yl)methoxy)pyrido[4′, 3′:4,5]thieno[2,3-d]pyrimidine]
54.6 nM | 542 nM | 3.31 nM | 1.24 µM | C#Cc1cc(F)cc2cc3[nH]ncc3c(-c3nccc4c3sc3nc(OC[C@@]56CCCN5C[C@H](F)C6)nc(N5C[C@H]6CC[C@@H](C5)N6)c34)c12 [Ex-86, 4-((1R,5S)-3,8-diazabicyclo[3.2.1]octan-3-yl)-8-(5-ethynyl-7-fluoro-1H-benzo[f]indazol-4-yl)-2-(((2R,7aS)-2-fluorotetrahydro-1H-pyrrolizin-7a(5H)-yl)methoxy)pyrido[4′,3′:4,5]thieno[2,3-d]pyrimidine]
> 30000 nM | > 11100 nM | 3200 nM | > 11.1 µM | COC1(COc2nc(N3C[C@H]4CC[C@@H](C3)N4)c3c(n2)sc2c(-c4c(C(F)(F)F)c(C)cc5[nH]ncc45)nccc23)CC1 [Ex-26, 4-((1R,5S)-3,8-diazabicyclo[3.2.1]octan-3-yl)-2-((1-methoxycyclopropyl)methoxy)-8-(6-methyl-5-(trifluoromethyl)-1H-indazol-4-yl)pyrido[4′,3′:4,5]thieno[2,3-d]pyrimidine]
> 30000 nM | > 11100 nM | 3340 nM | > 11.1 µM | Cc1cc2[nH]ncc2c(-c2nccc3c2sc2nc(OCC45COC(CF)(C4)C5)nc(N4C[C@H]5CC[C@@H](C4)N5)c23)c1C(F)(F)F [Ex-28, 4-((1R,5S)-3,8-diazabicyclo[3.2.1]octan-3-yl)-2-((1-(fluoromethyl)-2-oxabicyclo[2.1.1]hexan-4-yl)methoxy)-8-(6-methy1-5-(trifluoromethyl)-1H-indazol-4-yl)pyrido[4′,3′:4,5]thieno[2,3-d]pyrimidine]
180 nM | 2800 nM | 5.29 nM | 6.76 µM | C#Cc1c(F)ccc2cc3[nH]ncc3c(-c3nccc4c3sc3nc(OCC5(CN(C)C)COC5)nc(N5C[C@H]6CC[C@@H](C5)N6)c34)c12 [Ex-95, 1-(3-(((4-((1R,5S)-3,8-diazabicyclo[3.2.1]octan-3-yl)-8-(5-ethynyl-6-fluoro-1H-benzo[f]indazol-4-yl)pyrido[4′,3′:4,5]thie-no[2,3-d]pyrimidin-2-yl)oxy)methyl)oxetan-3-yl)-N,N-dimethylmethanamine]
86.3 nM | 467 nM | 3.58 nM | 0.412 µM | CCc1c(F)ccc2cc3[nH]ncc3c(-c3nccc4c3sc3nc(OC[C@@]56CCCN5C[C@H](F)C6)nc(N5C[C@H]6CC[C@@H](C5)N6)c34)c12 [Ex-87, 4-((1R,5S)-3,8-diazabicyclo[3.2.1]octan-3-yl)-8-(5-ethyl-6-fluoro-1H-benzo[f]indazol-4-yl)-2-(((2R,7aS)-2-fluorotetrahydro-1H-pyrrolizin-7a(5H)-yl)methoxy)pyrido[4′,3′:4,5]thieno[2,3-d]pyrimidine]
296 nM | 2360 nM | 2 nM | 9.28 µM | C#Cc1c(F)ccc2cc3[nH]ncc3c(-c3nccc4c3sc3nc(OC[C@]5(CN6CC[C@@H](F)C6)CC5(F)F)nc(N5C[C@H]6CC[C@@H](C5)N6)c34)c12 [Ex-103, 4-((1R,5S)-3,8-diazabicyclo[3.2.1]octan-3-yl)-2-(((R)-2,2-difluoro-1-(((R)-3-fluoropyrrolidin-1-yl)methyl)cyclopropyl)methoxy)-8-(5-ethynyl-6-fluoro-1H-benzo[f]indazol-4-yl)pyrido[4′,3′:4,5]thie-no[2,3-d]pyrimidine]
4880 nM | 6270 nM | 3200 nM | > 11.1 µM | FC(F)(F)C1(COc2nc(N3C[C@H]4CC[C@@H](C3)N4)c3c(n2)sc2c(-c4c(C5CC5)c(Cl)cc5[nH]ncc45)nccc23)CCOCC1 [Ex-118, 4-((1R,5S)-3,8-diazabicyclo[3.2.1]octan-3-yl)-8-(6-chloro-5-cyclopropyl-1H-indazol-4-yl)-2-((4-(trifluoromethyl)tetrahydro-2H-pyran-4-yl)methoxy)pyrido[4′,3′:4,5]thieno[2,3-d]pyrimidine]
